Laboratory results as given in PubChem BioAssay AID256 (DTP/NCI, 2004).
Several values for one entry are separate records, joined by “and”; a condition that tells them apart may be missing. Equal entries are not always repeated. Inconclusive results and toxic doses are left out. Non-standard residues stand in square brackets, D forms with d. Residues, ends and D or L forms follow the SMILES beside them. *: point of attachment. Cbz = O=C(OCc1ccccc1)*; Abu = CC[CH](N)C(=O)O

Tested on: CD2F1 mice, L1210 leukemia ip, survival T/C
Assay: NCI In Vivo Anticancer Drug Screen. Data for tumor model L1210 Leukemia (intraperitoneal) in CD2F1 (CDF1) mice
Settings: higher = longer survival
Procedure, shortened: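 Tumor-bearing mice (transplanted tumor) were split into treated and vehicle control groups, and the measured endpoint of each treated group was divided by that of its vehicle controls.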

[1] = endpoint: mean survival time, dose: 50.0 mg/kg/injection, schedule: Q01DX009 (ip), vehicle: Klucel (hydroxypropylcellulose) (HPC)
[2] = endpoint: mean survival time, dose: 100.0 mg/kg/injection, schedule: Q01DX009 (ip), vehicle: Klucel (hydroxypropylcellulose) (HPC)
[3] = endpoint: mean survival time, dose: 200.0 mg/kg/injection, schedule: Q01DX009 (ip), vehicle: Klucel (hydroxypropylcellulose) (HPC)
[4] = endpoint: mean survival time, dose: 100.0 mg/kg/injection, schedule: Q04DX003 (ip), vehicle: saline with Tween-80
[5] = endpoint: mean survival time, dose: 200.0 mg/kg/injection, schedule: Q04DX003 (ip), vehicle: saline with Tween-80
[6] = endpoint: mean survival time, dose: 400.0 mg/kg/injection, schedule: Q04DX003 (ip), vehicle: saline with Tween-80
[7] = endpoint: mean survival time, dose: 100.0 mg/kg/injection, schedule: Q01DX001 (ip), vehicle: saline with Tween-80
[8] = endpoint: mean survival time, dose: 200.0 mg/kg/injection, schedule: Q01DX001 (ip), vehicle: saline with Tween-80
[9] = endpoint: mean survival time, dose: 400.0 mg/kg/injection, schedule: Q01DX001 (ip), vehicle: saline with Tween-80
[10] = endpoint: mean survival time, dose: 100.0 mg/kg/injection, schedule: Q04DX002 (ip), vehicle: saline with Tween-80
[11] = endpoint: mean survival time, dose: 200.0 mg/kg/injection, schedule: Q04DX002 (ip), vehicle: saline with Tween-80

COc1ccc(NC(=O)Oc2cc(C)c(Cl)cc2C(C)C)c(Cl)c1
T/C [1]: 100 % of control
T/C [2]: 96 % of control
T/C (endpoint: mean survival time, dose: 100.0 mg/kg/injection, schedule: Q04DX003 (ip), vehicle: Klucel (hydroxypropylcellulose) (HPC)): 98 % of control
T/C [3]: 96 % of control
T/C (endpoint: mean survival time, dose: 200.0 mg/kg/injection, schedule: Q04DX003 (ip), vehicle: Klucel (hydroxypropylcellulose) (HPC)): 98 % of control
T/C (endpoint: mean survival time, dose: 400.0 mg/kg/injection, schedule: Q04DX003 (ip), vehicle: Klucel (hydroxypropylcellulose) (HPC)): 100 % of control

C1OC1CN1CCN(CC2CO2)CC1 (configuration not stated)
T/C (endpoint: mean survival time, dose: 2.0 mg/kg/injection, schedule: Q03HX008 (ip), vehicle: saline): 105 % of control
T/C (endpoint: mean survival time, dose: 2.0 mg/kg/injection, schedule: Q03HX016 (ip), vehicle: saline): 98 % of control
T/C (endpoint: mean survival time, dose: 2.0 mg/kg/injection, schedule: Q03HX024 (ip), vehicle: saline): 108 % of control
T/C (endpoint: mean survival time, dose: 4.0 mg/kg/injection, schedule: Q03HX008 (ip), vehicle: saline): 108 % of control
T/C (endpoint: mean survival time, dose: 4.0 mg/kg/injection, schedule: Q03HX016 (ip), vehicle: saline): 100 % of control
T/C (endpoint: mean survival time, dose: 4.0 mg/kg/injection, schedule: Q03HX024 (ip), vehicle: saline): 121 % of control
T/C (endpoint: mean survival time, dose: 8.0 mg/kg/injection, schedule: Q01DX009 (ip), vehicle: saline): 121 % of control
T/C (endpoint: mean survival time, dose: 8.0 mg/kg/injection, schedule: Q01DX009 (sc), vehicle: saline): 108 % of control
T/C (endpoint: mean survival time, dose: 16.0 mg/kg/injection, schedule: Q01DX001 (ip), vehicle: saline): 113 % of control
T/C (endpoint: mean survival time, dose: 16.0 mg/kg/injection, schedule: Q01DX001 (sc), vehicle: saline): 105 % of control
T/C (endpoint: mean survival time, dose: 16.0 mg/kg/injection, schedule: Q04DX003 (ip), vehicle: saline): 120 % of control
T/C (endpoint: mean survival time, dose: 16.0 mg/kg/injection, schedule: Q08DX002 (ip), vehicle: saline): 103 % of control
T/C (endpoint: mean survival time, dose: 32.0 mg/kg/injection, schedule: Q01DX001 (sc), vehicle: saline): 108 % of control
T/C (endpoint: mean survival time, dose: 32.0 mg/kg/injection, schedule: Q01DX009 (ip), vehicle: saline): 194 % of control
T/C (endpoint: mean survival time, dose: 32.0 mg/kg/injection, schedule: Q08DX002 (ip), vehicle: saline): 120 % of control
T/C (endpoint: mean survival time, dose: 64.0 mg/kg/injection, schedule: Q01DX001 (ip), vehicle: saline): 152 % of control
T/C (endpoint: mean survival time, dose: 64.0 mg/kg/injection, schedule: Q01DX001 (sc), vehicle: saline): 122 % of control
T/C (endpoint: mean survival time, dose: 64.0 mg/kg/injection, schedule: Q01DX009 (ip), vehicle: saline): 92 % of control
T/C (endpoint: mean survival time, dose: 64.0 mg/kg/injection, schedule: Q01DX009 (sc), vehicle: saline): 88 % of control
T/C (endpoint: mean survival time, dose: 64.0 mg/kg/injection, schedule: Q04DX003 (ip), vehicle: saline): 175 % of control
T/C (endpoint: mean survival time, dose: 64.0 mg/kg/injection, schedule: Q08DX002 (ip), vehicle: saline): 156 % of control
T/C (endpoint: mean survival time, dose: 128.0 mg/kg/injection, schedule: Q01DX001 (ip), vehicle: saline): 201 % of control
T/C (endpoint: mean survival time, dose: 128.0 mg/kg/injection, schedule: Q04DX003 (ip), vehicle: saline): 88 % of control
T/C (endpoint: mean survival time, dose: 128.0 mg/kg/injection, schedule: Q08DX002 (ip), vehicle: saline): 190 % of control

O=C(/C=C(/c1ccccc1)P(=O)(c1ccccc1)c1ccccc1)c1ccccc1
T/C [4]: 98 % of control
T/C [5]: 93 % of control
T/C [6]: 88 % of control

O=C1C=CC(=O)N1c1ccccc1[N+](=O)[O-]
T/C (endpoint: mean survival time, dose: 3.0 mg/kg/injection, schedule: Q01DX009 (ip), vehicle: saline with Tween-80): 96 % of control
T/C (endpoint: mean survival time, dose: 6.0 mg/kg/injection, schedule: Q01DX009 (ip), vehicle: saline with Tween-80): 100 % of control
T/C (endpoint: mean survival time, dose: 6.25 mg/kg/injection, schedule: Q04DX003 (ip), vehicle: saline with Tween-80): 100 % of control
T/C (endpoint: mean survival time, dose: 12.0 mg/kg/injection, schedule: Q01DX009 (ip), vehicle: saline with Tween-80): 97 % of control
T/C (endpoint: mean survival time, dose: 12.5 mg/kg/injection, schedule: Q04DX003 (ip), vehicle: saline with Tween-80): 97 % of control

CN(C)NC(=O)CC(N)C(=O)O (configuration not stated)
T/C [4]: 101 % of control
T/C [5]: 101 % of control
T/C [6]: 102 % of control

CCC(NC(=O)OCc1ccccc1)C(=O)N1CCCC1C(=O)OC (configuration not stated) (Cbz-[Abu]-Pro-OMe; configuration not given here)
T/C [7]: 103 % of control
T/C [8]: 104 % of control
T/C [9]: 103 % of control

COc1ccc(OCCCn2cc(-c3ccc(Cl)c(Cl)c3)c(N)nc2=O)cc1
T/C [4]: 97 % of control
T/C [5]: 92 % of control
T/C [6]: 94 % of control

CC(=O)NCCc1ccccc1
T/C [2]: 109 % of control
T/C (endpoint: mean survival time, dose: 100.0 mg/kg/injection, schedule: Q04DX003 (ip), vehicle: saline sonified): 103 % of control
T/C [3]: 102 % of control
T/C (endpoint: mean survival time, dose: 200.0 mg/kg/injection, schedule: Q04DX003 (ip), vehicle: saline sonified): 109 % of control
T/C (endpoint: mean survival time, dose: 400.0 mg/kg/injection, schedule: Q01DX009 (ip), vehicle: Klucel (hydroxypropylcellulose) (HPC)): 104 % of control
T/C (endpoint: mean survival time, dose: 400.0 mg/kg/injection, schedule: Q04DX003 (ip), vehicle: saline sonified): 97 % of control

S=C1NC(c2ccccc2)Nc2ccccc21 (configuration not stated)
T/C [4]: 91 % of control
T/C [5]: 95 % of control

O=S(=O)(O)CCCBr
T/C (endpoint: mean survival time, dose: 100.0 mg/kg/injection, schedule: Q01DX009 (ip), vehicle: saline): 93 % of control
T/C (endpoint: mean survival time, dose: 200.0 mg/kg/injection, schedule: Q01DX009 (ip), vehicle: saline): 105 % of control
T/C (endpoint: mean survival time, dose: 400.0 mg/kg/injection, schedule: Q01DX009 (ip), vehicle: saline): 100 % of control

COc1ccccc1-n1c(O)c(N=Nc2ccccc2)c(=O)n(-c2ccccc2)c1=S
T/C (endpoint: mean survival time, dose: 100.0 mg/kg/injection, schedule: Q04DX003 (ip), vehicle: acetone): 90 % of control

CCc1c(N=O)c(-c2ccccc2)n(O)[n+]1[O-]
T/C [1]: 104 % of control
T/C [2]: 101 % of control
T/C [3]: 95 % of control

Cc1cc(=O)[nH]c(=S)[nH]1
T/C [7]: 98 % of control
T/C [10]: 97 % of control
T/C [8]: 95 % of control
T/C [11]: 97 % of control
T/C [9]: 88 % of control

Clc1ccc(OCC2CO2)cc1 (configuration not stated)
T/C (endpoint: mean survival time, dose: 25.0 mg/kg/injection, schedule: Q04DX003 (ip), vehicle: saline with Tween-80): 101 % of control
T/C (endpoint: mean survival time, dose: 50.0 mg/kg/injection, schedule: Q04DX003 (ip), vehicle: saline with Tween-80): 101 % of control
T/C [4]: 98 % of control

COc1ccc(OC)c(NC(=S)NC(=O)COc2ccccc2)c1
T/C [7]: 87 % of control
T/C (endpoint: mean survival time, dose: 100.0 mg/kg/injection, schedule: Q01DX009 (ip), vehicle: saline with Tween-80): 94 % of control and 97 % of control
T/C [10]: 98 % of control
T/C [8]: 87 % of control
T/C (endpoint: mean survival time, dose: 200.0 mg/kg/injection, schedule: Q01DX009 (ip), vehicle: saline with Tween-80): 88 % of control and 93 % of control
T/C [11]: 102 % of control
T/C [9]: 89 % of control
T/C (endpoint: mean survival time, dose: 400.0 mg/kg/injection, schedule: Q01DX009 (ip), vehicle: saline with Tween-80): 102 % of control and 104 % of control
T/C (endpoint: mean survival time, dose: 400.0 mg/kg/injection, schedule: Q04DX002 (ip), vehicle: saline with Tween-80): 109 % of control

FC(F)(F)C1(C(F)(F)F)C/C(=N/Nc2ccccc2)CO1
T/C (endpoint: mean survival time, dose: 100.0 mg/kg/injection, schedule: Q04DX003 (ip), vehicle: other): 101 % of control
T/C (endpoint: mean survival time, dose: 200.0 mg/kg/injection, schedule: Q04DX003 (ip), vehicle: other): 101 % of control
T/C (endpoint: mean survival time, dose: 400.0 mg/kg/injection, schedule: Q04DX003 (ip), vehicle: other): 101 % of control

CCOC(=O)C(C(=S)NC)=S(C)C
T/C (endpoint: mean survival time, dose: 100.0 mg/kg/injection, schedule: Q01DX001 (ip), vehicle: other): 92 % of control
T/C (endpoint: mean survival time, dose: 200.0 mg/kg/injection, schedule: Q01DX001 (ip), vehicle: other): 88 % of control
T/C (endpoint: mean survival time, dose: 400.0 mg/kg/injection, schedule: Q01DX001 (ip), vehicle: other): 105 % of control

Nc1ccc(N=Nc2cccnc2)cc1
T/C (endpoint: mean survival time, dose: 100.0 mg/kg/injection, schedule: Q04DX002 (ip), vehicle: other): 103 % of control
T/C (endpoint: mean survival time, dose: 200.0 mg/kg/injection, schedule: Q04DX002 (ip), vehicle: other): 88 % of control

ON1C=CC2C=CC1c1ccccc12 (configuration not stated)
T/C (endpoint: median survival time, dose: 50.0 mg/kg/injection, schedule: Q04DX002 (ip), vehicle: saline with Tween-80): 100 % of control
T/C (endpoint: median survival time, dose: 100.0 mg/kg/injection, schedule: Q04DX002 (ip), vehicle: saline with Tween-80): 88 % of control
T/C (endpoint: median survival time, dose: 200.0 mg/kg/injection, schedule: Q04DX002 (ip), vehicle: saline with Tween-80): 88 % of control

c1ccc2[nH]c(C3CCCCN3)cc2c1 (configuration not stated)
T/C (endpoint: mean survival time, dose: 100.0 mg/kg/injection, schedule: Q01DX001 (ip), vehicle: saline): 101 % of control
T/C (endpoint: mean survival time, dose: 200.0 mg/kg/injection, schedule: Q01DX001 (ip), vehicle: saline): 96 % of control
